# Measured values: US20230248741A1, “Compositions and Methods for Lowering Triglycerides in a Subject with Reduced Kidney Function and Diabetes Mellitus” (Amarin Pharmaceuticals Ireland Limited, priority 2018, published 2023)
# Test system: patients with chronic kidney disease (eGFR <60 mL/min/1.73 m^2 for ≥3 months)
# Test: ANCHOR post-hoc: lipid and lipoprotein parameters, oxidation and inflammation markers
# Assay type: in vivo, human
# Procedure: CVD-related (e.g., atherogenic) parameters were analyzed in a post-hoc study of 55 patients from the multi-center, placebo-controlled, randomized double-blind, 12-week study described in Example 1. These 55 patients have chronic kidney disease (e.g., eGFR<60 mL/min/1.73 m^2 for ≥3 months). There was no lower limit of eGFR specified.
# Subjects: 19 patients were randomized to E-EPA and 36 patients were randomized to placebo. One patient in each group discontinued and was excluded from efficacy analyses (but not safety analyses). EPA levels in plasma and RBC were measured in 23 of the 55 patients. These measurements were taken on 7 of the patients randomized to E-EPA and on 16 of the patients that were randomized to the placebo.
# The primary objective of this post-hoc study, which is based on an intention to treat, was to determine if and how 4 g daily of >96% E-EPA affects patients with stage 3 chronic kidney disease (e.g., eGFR<60 mL/min/1.73 m^2 for ≥3 months). The secondary objective was to determine if and how 4 g daily of >96% E-EPA, compared to a placebo, affected CVD-related parameters in patients with a high risk of CVD and fasting TG levels ≥[…] and <500 mg/dL, despite LDL-C goal on statin therapy. These CVD-parameters include lipid levels, lipoprotein levels, and inflammatory markers, such as TC, LDL-C, HDL-C, VLDL-C, VLDL-TG, RLP-C, non-HDL-C, Apo B, Apo C-III, Lp-PLA, hsCRP, and ox-LDL, and in plasma and RBC EPA concentration. CVD-parameters were analyzed for median difference in percent change from baseline to week 12 in subjects receiving 4 g/day of E-EPA and those receiving the placebo.
# Analysis: The median difference in percent change from baseline between 4 g/day of E-EPA and placebo for the primary efficacy variable and additional assessments were estimated using the Hodges-Lehmann method (P values from the Wilcoxon rank-sum test for treatment comparisons). Using the Hodges-Lehmann method, departures from normal distribution were observed; for normally distributed parameters, an analysis of covariance model was used with least squares (LS) means and standard errors (SE). Missing values were imputed using the last-observation-carried-forward method. For all post hoc analyses, the alpha for statistical significance was 0.05.
# [1] = 4 g/day group (n = 17), before treatment
# [2] = 4 g/day group, before treatment
# [3] = 4 g/day, week 12, Hodges-Lehmann
structure (smiles),measurement,setting,value
"CC/C=C\C/C=C\C/C=C\C/C=C\C/C=C\CCCC(=O)OCC [E-EPA, ethyl eicosapentaenoate]","Ox-LDL Baseline, median","4 g/day group (n = 8), before treatment",48.6 u/L
same,"RLP-C Baseline, median","4 g/day group (n = 9), before treatment",17.0 mg/dL
same,"Apo C-III Baseline, median","4 g/day group (n = 13), before treatment",15.6 mg/dL
same,"Apo B Baseline, median",[1],87.0 mg/dL
same,"Lp-PLA2 Baseline, median",[1],173.0 ng/mL
same,"hsCRP Baseline, median",[1],1.9 mg/L
same,"TGs Baseline, median","4 g/day group (n = 18), before treatment",268.5 mg/dL
same,"HDL-C Baseline, median",[2],35.0 mg/dL
same,"LDL-C Baseline, median",[2],76.0 mg/dL
same,"Non-HDL-C Baseline, median",[2],124.5 mg/dL
same,"TC Baseline, median",[2],159.5 mg/dL
same,"VLDL-C Baseline, median",[2],42.0 mg/dL
same,"VLDL-TGs Baseline, median",[2],194.0 mg/dL
same,reduction of TG compared to placebo,"4 g/day, 12 weeks, P=0.007",at least 16.9%
same,median TGs reduction from baseline,"4 g/day, CKD cohort",−16.9%
same,"Apo B Change From Baseline, %, median","4 g/day, week 12",−7.2%
same,"Apo B End of Treatment, median","4 g/day, week 12",83.0 mg/dL
same,"Apo C-III Change From Baseline, %, median","4 g/day, week 12",−7.3%
same,"Apo C-III End of Treatment, median","4 g/day, week 12",13.9 mg/dL
same,"HDL-C Change From Baseline, %, median","4 g/day, week 12",0.9%
same,"HDL-C End of Treatment, median","4 g/day, week 12",35.5 mg/dL
same,"LDL-C Change From Baseline, %, median","4 g/day, week 12",−6.5%
same,"LDL-C End of Treatment, median","4 g/day, week 12",70.5 mg/dL
same,"Lp-PLA2 Change From Baseline, %, median","4 g/day, week 12",−12.7%
same,"Lp-PLA2 End of Treatment, median","4 g/day, week 12",150.0 ng/mL
same,"Non-HDL-C Change From Baseline, %, median","4 g/day, week 12",−8.4%
same,"Non-HDL-C End of Treatment, median","4 g/day, week 12",116.0 mg/dL
same,"Ox-LDL Change From Baseline, %, median","4 g/day, week 12",−9.5%
same,"Ox-LDL End of Treatment, median","4 g/day, week 12",45.1 u/L
same,"TC Change From Baseline, %, median","4 g/day, week 12",−8.1%
same,"TC End of Treatment, median","4 g/day, week 12",151.5 mg/dL
same,"TGs Change From Baseline, %, median","4 g/day, week 12",−17.1%
same,"TGs End of Treatment, median","4 g/day, week 12",230.5 mg/dL
same,"VLDL-C Change From Baseline, %, median","4 g/day, week 12",−16.3%
same,"VLDL-C End of Treatment, median","4 g/day, week 12",36.5 mg/dL
same,"VLDL-TGs Change From Baseline, %, median","4 g/day, week 12",−25.8%
same,"VLDL-TGs End of Treatment, median","4 g/day, week 12",168.5 mg/dL
same,"hsCRP Change From Baseline, %, median","4 g/day, week 12",−16.9%
same,"hsCRP End of Treatment, median","4 g/day, week 12",2.1 mg/L
same,Apo B Median Difference in % Change From Baseline vs. Placebo,[3],"−18.7, 0.0002%"
same,Apo C-III Median Difference in % Change From Baseline vs. Placebo,[3],"−15.0, 0.0168%"
same,HDL-C Median Difference in % Change From Baseline vs. Placebo,[3],"−8.3, 0.0362%"
same,LDL-C Median Difference in % Change From Baseline vs. Placebo,[3],"−20.8, 0.0086%"
same,Lp-PLA2 Median Difference in % Change From Baseline vs. Placebo,[3],"−17.5, 0.0068%"
same,Non-HDL-C Median Difference in % Change From Baseline vs. Placebo,[3],"−21.5, <0.0001%"
same,Ox-LDL Median Difference in % Change From Baseline vs. Placebo,[3],"−25.7, 0.0068%"
same,RLP-C Median Difference in % Change From Baseline vs. Placebo,[3],"−38.8, 0.0295%"
same,TC Median Difference in % Change From Baseline vs. Placebo,[3],"−18.2, <0.0001%"
same,"TGs Median Difference in % Change From Baseline, Icosapent Ethyl 4 g/day vs. Placebo",[3],"−16.9, 0.0074%"
same,VLDL-C Median Difference in % Change From Baseline vs. Placebo,[3],"−28.7, 0.0026%"
same,VLDL-TGs Median Difference in % Change From Baseline vs. Placebo,[3],"−25.6, 0.0020%"
same,hsCRP Median Difference in % Change From Baseline vs. Placebo,"4 g/day, week 12, Hodges-Lehmann, P 0.1209","−25.0, 0.1209%"
same,"RLP-C Change From Baseline, %, median","4 g/day, week 12, n = 9",−38.9%
same,"RLP-C End of Treatment, median","4 g/day, week 12, n = 9",10.0 mg/dL
